# Values quoted from earlier work as cited in patent publication US7311392B2, “Inkjet recording ink and method of inkjet recording” (Fujifilm Corporation, priority 2002, dated 2007).
# Details: 20° C.; water-miscible organic solvent of the ink
row,Structure (SMILES),Vapor Pressure [Pa]
1,"CC(C)O [Compound 2-Propanol, 2-Propanol]",4320 (20° C.) Pa
2,OCCOCCO [Diethylene glycol],<1.3 (20° C.) Pa
3,CCCCOCCOCCOCCO [Triethylene glycol monobutyl ether],<1.3 (20° C.) Pa

# Other lines, results leading:
row,Vapor Pressure [Pa],Structure (SMILES)
1,0.3 (20° C.) Pa,OCC(O)CO [Glycerin]
2,1013 (20° C.) Pa,"COCC(C)O (centres unmarked) [Compound 1-Methoxy-2-propanol, 1-Methoxy-2-propanol]"
